Data from US20250340557A1, “PYRIMIDINE DERIVATIVE” (ASKA PHARMACEUTICAL CO., LTD., priority 2022, published 2025).

biological target: T1, human mPGES-1 (Homo sapiens, UniProt O14684); experiment: Test for mPGES-1 inhibitory activity (microsomal enzyme, PGE2 EIA); format: biochemical; conditions: microsomes from COS-1 cells transfected with human mPGES-1 cDNA; substrate PGH2 1 μM; 4° C., 4 minutes; PGE2 measured by EIA; read-out: h mPGES1 IC50
T1 construct: made in house; host or cells: COS-1 cells (transient transfection; microsomal fraction used as enzyme)
T1 sequence (O14684 1-152): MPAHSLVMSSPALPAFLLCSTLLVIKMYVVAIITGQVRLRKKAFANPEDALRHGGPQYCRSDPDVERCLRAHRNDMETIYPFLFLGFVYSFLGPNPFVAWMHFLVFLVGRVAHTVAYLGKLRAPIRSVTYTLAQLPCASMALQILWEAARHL
Method: Test Example 1: Test for mPGES-1 Inhibitory Activity
Microsomes were prepared from COS-1 cells transiently transfected with a plasmid containing human mPGES-1 cDNA, and used as mPGES-1 enzyme. The mPGES-1 enzyme was diluted with a sodium phosphate buffer (pH 7.2) containing reduced glutathione (2.5 mM) and EDTA (1 mM), DMSO or a DMSO solution of a test compound (final concentration of DMSO was 2%) was added to the enzyme, and the mixture was preincubated at 4° C. for 15 minutes. Then, PGH2 (Prostaglandin H2) as the substrate was added at a final concentration of 1 μM to start the enzymatic reaction, and after incubation at 4° C. for 4 minutes, a solution of ferric chloride (25 mM) and citric acid (50 mM) was added to terminate the enzymatic reaction. Generated PGE2 (Prostaglandin E2) was measured by using Prostaglandin E2 Express EIA Kit (Cayman Chemical). IC50 values were determined by using a standard method.

`Cc1cccc2ccc(N3CCC(C(=O)NCc4ccc(C(F)(F)F)c(-c5nc(C(F)(F)F)cc(=O)[nH]5)c4F)CC3)nc12` [Example 4, N-{2-fluoro-3-[6-oxo-4-(trifluoromethyl)-1,6-dihydropyrimidin-2-yl]-4-(trifluoromethyl)benzyl}-1-(8-methylquinolin-2-yl)piperidine-4-carboxamide] and `Cc1cc(=O)[nH]c(-c2c(C(F)(F)F)ccc(CNC(=O)C3CCN(c4ccc5cccc(C)c5n4)CC3)c2F)n1` [Example 9, N-[2-fluoro-3-(4-methyl-6-oxo-1,6-dihydropyrimidin-2-yl)-4-(trifluoromethyl)benzyl]-1-(8-methylquinolin-2-yl)piperidine-4-carboxamide] cannot be ordered by IC50: under 1 nM for the first, under 10 nM for the second.

Going from `Cc1cccc2ccc(N3CCC(F)(C(=O)NCc4ccc(C(F)(F)F)c(-c5nc(C(F)(F)F)cc(=O)[nH]5)c4F)CC3)nc12` [Example 15, 4-fluoro-N-{2-fluoro-3-[6-oxo-4-(trifluoromethyl)-1,6-dihydropyrimidin-2-yl]-4-(trifluoromethyl)benzyl}-1-(8-methylquinolin-2-yl)piperidine-4-carboxamide] to `Cc1nc(-c2c(C(F)(F)F)ccc(CNC(=O)C3CCN(c4ccc5cccc(C)c5n4)CC3)c2F)[nH]c(=O)c1C` [Example 13, N-[3-(4,5-dimethyl-6-oxo-1,6-dihydropyrimidin-2-yl)-2-fluoro-4-(trifluoromethyl)benzyl]-1-(8-methylquinolin-2-yl)piperidine-4-carboxamide], the IC50 rises from under 1 nM to 2.4 nM. The first is the more potent here.

`O=C(NCc1ccc(C(F)(F)F)c(-c2nc(C(F)(F)F)cc(=O)[nH]2)c1F)C1CCN(c2ccccn2)CC1` [Example 19, N-{2-fluoro-3-[6-oxo-4-(trifluoromethyl)-1,6-dihydropyrimidin-2-yl]-4-(trifluoromethyl)benzyl}-1-(pyridin-2-yl)piperidine-4-carboxamide] and `O=C(NCc1ccc(C(F)(F)F)c(-c2nc(C(F)(F)F)cc(=O)[nH]2)c1F)C1CCN(c2ccc(Cl)cc2)CC1` [Example 64, 1-(4-chlorophenyl)-N-{2-fluoro-3-[6-oxo-4-(trifluoromethyl)-1,6-dihydropyrimidin-2-yl]-4-(trifluoromethyl)benzyl}piperidine-4-carboxamide] cannot be ordered by IC50: under 1 nM for the first, under 1 nM for the second.

Compared with `Cc1nc(-c2c(C(F)(F)F)ccc(CNC(=O)[C@H]3CC[C@H](OCc4ccc(Cl)cc4)CC3)c2F)[nH]c(=O)c1F` [Example 104, trans-4-[(4-chlorobenzyl)oxy]-N-[2-fluoro-3-(5-fluoro-4-methyl-6-oxo-1,6-dihydropyrimidin-2-yl)-4-(trifluoromethyl)benzyl]cyclohexane-1-carboxamide], `Cc1nc(-c2c(C(F)(F)F)ccc(CNC(=O)[C@H]3CC[C@H](OCc4ccccc4Cl)CC3)c2F)[nH]c(=O)c1F` [Example 102, trans-4-[(2-chlorobenzyl)oxy]-N-[2-fluoro-3-(5-fluoro-4-methyl-6-oxo-1,6-dihydropyrimidin-2-yl)-4-(trifluoromethyl)benzyl]cyclohexane-1-carboxamide] is lower in IC50: 1.2 nM for the first, under 1 nM for the second.

Compared with `O=C(NCc1ccc(C(F)(F)F)c(-c2nc(C(F)F)cc(=O)[nH]2)c1F)C1CCN(c2ccc(C(F)(F)F)cn2)CC1` [Example 29, N-{3-[4-(difluoromethyl)-6-oxo-1,6-dihydropyrimidin-2-yl]-2-fluoro-4-(trifluoromethyl)benzyl}-1-[5-(trifluoromethyl)pyridin-2-yl]piperidine-4-carboxamide], `O=C(NCc1ccc(C(F)(F)F)c(-c2nc(C(F)F)cc(=O)[nH]2)c1F)C1CCN(c2ncc(C(F)(F)F)cc2F)CC1` [Example 55, N-{3-[4-(difluoromethyl)-6-oxo-1,6-dihydropyrimidin-2-yl]-2-fluoro-4-(trifluoromethyl)benzyl}-1-[3-fluoro-5-(trifluoromethyl)pyridin-2-yl]piperidine-4-carboxamide] is lower in IC50: 11 nM for the first, under 1 nM for the second. The second is the more potent here.

`O=C(NCc1ccc(C(F)(F)F)c(-c2nc(C(F)(F)F)cc(=O)[nH]2)c1F)C1CCN(c2ccc(F)c(Cl)c2)CC1` [Example 88, 1-(3-chloro-4-fluorophenyl)-N-{2-fluoro-3-[6-oxo-4-(trifluoromethyl)-1,6-dihydropyrimidin-2-yl]-4-(trifluoromethyl)benzyl}piperidine-4-carboxamide] and `O=c1cc(C(F)(F)F)nc(-c2c(C(F)(F)F)ccc(CNC(=O)[C@H]3CC[C@H](OCc4cc(F)cc(Cl)c4)CC3)c2F)[nH]1` [Example 119, trans-4-[(3-chloro-5-fluorobenzyl)oxy]-N-{2-fluoro-3-[6-oxo-4-(trifluoromethyl)-1,6-dihydropyrimidin-2-yl]-4-(trifluoromethyl)benzyl}cyclohexane-1-carboxamide] cannot be ordered by IC50: under 1 nM for the first, under 1 nM for the second.

For `O=c1cc(C(F)F)nc(-c2c(C(F)(F)F)ccc(CNC(=O)[C@H]3CC[C@H](OCc4ccc(Cl)cc4)CC3)c2F)[nH]1` [Example 116, trans-4-[(4-chlorobenzyl)oxy]-N-{3-[4-(difluoromethyl)-6-oxo-1,6-dihydropyrimidin-2-yl]-2-fluoro-4-(trifluoromethyl)benzyl}cyclohexane-1-carboxamide], the IC50 was 10 nM.

same assay, conditions: microsomes of COS-1 cells transfected with human mPGES-1 cDNA; PGH2 1 μM; 4° C., 4 minutes; PGE2 by EIA; read-out: h mPGES1 IC50

`Cc1nc(-c2c(C(F)(F)F)ccc(CNC(=O)[C@H]3C[C@H](OCc4ccc(F)c(F)c4)C3)c2F)[nH]c(=O)c1F` [Example 220, trans-3-[(3,4-difluorobenzyl)oxy]-N-[2-fluoro-3-(5-fluoro-4-methyl-6-oxo-1,6-dihydropyrimidin-2-yl)-4-(trifluoromethyl)benzyl]cyclobutane-1-carboxamide] and `Cc1nc(-c2c(C(F)(F)F)ccc(CNC(=O)[C@H]3C[C@H](OCc4cc(F)cc(F)c4)C3)c2F)[nH]c(=O)c1F` [Example 221, trans-3-[(3,5-difluorobenzyl)oxy]-N-[2-fluoro-3-(5-fluoro-4-methyl-6-oxo-1,6-dihydropyrimidin-2-yl)-4-(trifluoromethyl)benzyl]cyclobutane-1-carboxamide] are within 1.5-fold of each other in IC50: 15 nM for the first, 14 nM for the second.

`O=c1cc(C(F)(F)F)nc(-c2c(C(F)(F)F)ccc(CNC(=O)[C@H]3C[C@H](Oc4ccc(C(F)(F)F)cn4)C3)c2F)[nH]1` [Example 249, trans-N-{2-fluoro-3-[6-oxo-4-(trifluoromethyl)-1,6-dihydropyrimidin-2-yl]-4-(trifluoromethyl)benzyl}-3-{[5-(trifluoromethyl)pyridin-2-yl]oxy}cyclobutane-1-carboxamide] and `O=c1cc(C(F)(F)F)nc(-c2c(C(F)(F)F)ccc(CNC(=O)[C@H]3C[C@@H](OCc4cc(F)cc(Cl)c4)C3)c2F)[nH]1` [Example 160, cis-3-[(3-chloro-5-fluorobenzyl)oxy]-N-{2-fluoro-3-[6-oxo-4-(trifluoromethyl)-1,6-dihydropyrimidin-2-yl]-4-(trifluoromethyl)benzyl}cyclobutane-1-carboxamide] cannot be ordered by IC50: under 1 nM for the first, under 1 nM for the second.

`CCc1nc(-c2c(C(F)(F)F)ccc(CNC(=O)[C@H]3C[C@H](OCc4ccc(Cl)cc4F)C3)c2F)[nH]c(=O)c1F` [Example 236, trans-3-[(4-chloro-2-fluorobenzyl)oxy]-N-[3-(4-ethyl-5-fluoro-6-oxo-1,6-dihydropyrimidin-2-yl)-2-fluoro-4-(trifluoromethyl)benzyl]cyclobutane-1-carboxamide] and `CCc1nc(-c2c(C(F)(F)F)ccc(CNC(=O)[C@H]3C[C@H](OCc4cccc(Cl)c4F)C3)c2F)[nH]c(=O)c1F` [Example 242, trans-3-[(3-chloro-2-fluorobenzyl)oxy]-N-[3-(4-ethyl-5-fluoro-6-oxo-1,6-dihydropyrimidin-2-yl)-2-fluoro-4-(trifluoromethyl)benzyl]cyclobutane-1-carboxamide] cannot be ordered by IC50: under 1 nM for the first, under 1 nM for the second.

Compared with `O=c1cc(C(F)F)nc(-c2c(C(F)(F)F)ccc(CNC(=O)[C@H]3C[C@H](OCc4cc(F)cc(F)c4)C3)c2F)[nH]1` [Example 170, trans-3-[(3,5-difluorobenzyl)oxy]-N-{3-[4-(difluoromethyl)-6-oxo-1,6-dihydropyrimidin-2-yl]-2-fluoro-4-(trifluoromethyl)benzyl}cyclobutane-1-carboxamide], `Cc1cc(=O)[nH]c(-c2c(C(F)(F)F)ccc(CNC(=O)[C@H]3C[C@H](OCc4cc(F)cc(F)c4)C3)c2F)n1` [Example 187, trans-3-[(3,5-difluorobenzyl)oxy]-N-[2-fluoro-3-(4-methyl-6-oxo-1,6-dihydropyrimidin-2-yl)-4-(trifluoromethyl)benzyl]cyclobutane-1-carboxamide] is 4.9-fold higher in IC50: 1.3 nM for the first, 6.4 nM for the second. The first is the more potent here.

`O=c1[nH]c(-c2c(C(F)(F)F)ccc(CNC(=O)[C@H]3C[C@H](OCc4cccc(Cl)c4)C3)c2F)nc2c1CCC2` [Example 247, trans-3-[(3-chlorobenzyl)oxy]-N-[2-fluoro-3-(4-oxo-4,5,6,7-tetrahydro-3H-cyclopenta[d]pyrimidin-2-yl)-4-(trifluoromethyl)benzyl]cyclobutane-1-carboxamide] and `CCc1nc(-c2c(C(F)(F)F)ccc(CNC(=O)[C@H]3C[C@H](OCc4cccc(F)c4)C3)c2F)[nH]c(=O)c1F` [Example 239, trans-N-[3-(4-ethyl-5-fluoro-6-oxo-1,6-dihydropyrimidin-2-yl)-2-fluoro-4-(trifluoromethyl)benzyl]-3-[(3-fluorobenzyl)oxy]cyclobutane-1-carboxamide] cannot be ordered by IC50: under 1 nM for the first, under 1 nM for the second.
